# Columns and labels:
# [1] = UVA-induced squalene oxidation in vitro model, MDA formed measured by fluorometric TBARS assay; type: biochemical; conditions: 20 J/cm^2 UVA; for Efficacy (percentage difference in MDA generation compared to the untreated, UV-stimulated control sample): 0.12 nM protoporphyrin IX, negative = reduction
# Experimental: The antioxidant test model described above was used to test efficacy of various antioxidants in reducing the oxidation of squalene in conditions reflecting approximately two (2) hours of intense sun exposure. The target Oxidizable Component was squalene, in an amount of 30 μL (9.7% w/w) per sample. The solvents selected were dimethyl sulfoxide, propylene glycol (PG), and 1-butanol, in amounts of 8.3% (v/v), 8.3% (v/v), and 83.5% (v/v) per sample, respectively. The tests further included a biological metabolite, specifically protoporphyrin IX, in an amount of 0.12 nM per sample. The exposure to UVA radiation, using a solar simulator (NewportR), Oriel Instruments U.S.A., model 91293-1000), was 20 J/cm^2, as measured by a calibrated UVA detector probe (Solar Light Company, Inc., model PMA2110-UVS) connected to a calibrated simulator controller (Solar Light Company, Inc., model DCS-2).
# To prepare the antioxidant test solutions, the antioxidants were first dissolved (via vortexing and gentle heating if necessary) in a volume of dimethyl sulfoxide (DMSO) that achieved a target concentration for the predetermined use level as outlined in Table 1.
# The antioxidant test solutions were then diluted by 50% with propylene glycol (PG). […] The bulk volume was vortexed immediately prior to pipetting 5 replicates of 300 μL samples into the wells of a 24-well plate. The plates were then exposed to the UVA radiation until the target UVA dose was achieved (20 J/cm^2), after which the plate was removed and the amount of MDA formed by lipid peroxidation was analyzed. Care was taken during the experiment to protect the samples from extraneous light oxidation throughout the solution preparation, sample plating, and after the UVA exposure prior to MDA quantitation.
# The determination of the amount of MDA formed was performed by fluorometric analysis using a commercial TBARS assay kit (Sigma Aldrich, catalogue #MAK085) that reacts thiobarbituric acid with the MDA present in the sample to form a fluorometric product (λex=532/λem=553 nm), which can be easily quantitated with a monochromator-based microplate reader (Tecan Infinite M1000 Pro) and the accompanying software (Tecan i-control). […] The magnitude of efficacy for each sample, expressed as percentage reduction from the untreated control, was averaged for each antioxidant treatment.
# In Table 2 below, “X” means that there was no significant reduction (p<0.05) in the MDA formation as compared to the UV-stimulated control. The % of concentration of the active in the formula tested is identified as “% conc”.
# [2] = 1% in oil-in-water emulsion, topical twice daily 2 mg/cm^2 for 7 days on the back, human subjects, 10 J/cm^2 UVA; significant (p<0.05); cited from earlier work
# [3] = 0.05% conc of active in formula
structure (smiles),measurement,setting,value
O=c1cc(-c2ccc(O)cc2)oc2cc(O)cc(O)c12 [Apigenin],"Efficacy (percentage difference in MDA generation compared to the untreated, UV-stimulated control sample)",[1]; 0.5% conc of active in formula,−35%
"Cc1cc(C(C)(C)C)c(O)c(C(C)(C)C)c1 [Butylated hydroxytoluene (BHT), Butylated hydroxytoluene]","Efficacy (percentage difference in MDA generation compared to the untreated, UV-stimulated control sample)",[1]; 0.035% conc of active in formula,−54%
"CC(C)(CO)[C@H](O)C(=O)NCCCO [D-Panthenol (Provitamin B5), D-Panthenol]","Efficacy (percentage difference in MDA generation compared to the untreated, UV-stimulated control sample)",[1]; 0.25% conc of active in formula,−21%
same,"Efficacy (percentage difference in MDA generation compared to the untreated, UV-stimulated control sample)",[1]; 0.5% conc of active in formula,−18%
COc1cc(/C=C/C(=O)O)ccc1O [Ferulic acid],"Efficacy (percentage difference in MDA generation compared to the untreated, UV-stimulated control sample)",[1]; 0.01% conc of active in formula,−47%
same,"Efficacy (percentage difference in MDA generation compared to the untreated, UV-stimulated control sample)",[1]; [3],−41%
same,"Efficacy (percentage difference in MDA generation compared to the untreated, UV-stimulated control sample)",[1]; 0.1% conc of active in formula,−39%
O=C(O)CO [Glycolic acid],"Efficacy (percentage difference in MDA generation compared to the untreated, UV-stimulated control sample)",[1]; 3% conc of active in formula,−25%
O=C(O)C(O)c1ccccc1 (centres unmarked) [Mandelic acid],"Efficacy (percentage difference in MDA generation compared to the untreated, UV-stimulated control sample)",[1]; 2% conc of active in formula,81%
same,"Efficacy (percentage difference in MDA generation compared to the untreated, UV-stimulated control sample)",[1]; 3% conc of active in formula,69%
NC(=O)c1cccnc1 [Niacinamide],"Efficacy (percentage difference in MDA generation compared to the untreated, UV-stimulated control sample)",[1]; 0.5% conc of active in formula,58%
"Cc1c(C)c2c(c(C)c1O)CC[C@@](C)(CCC[C@H](C)CCC[C@H](C)CCCC(C)C)O2 [Vitamin E (alpha-tocopherol), alpha-tocopherol]","Efficacy (percentage difference in MDA generation compared to the untreated, UV-stimulated control sample)",[1]; 0.1% conc of active in formula,−61%
same,"Efficacy (percentage difference in MDA generation compared to the untreated, UV-stimulated control sample)",[1]; 0.5% conc of active in formula,−78%
same,"Efficacy (percentage difference in MDA generation compared to the untreated, UV-stimulated control sample)",[1]; 1% conc of active in formula,−81%
CC(=O)Oc1c(C)c(C)c2c(c1C)CCC(C)(CCC[C@H](C)CCC[C@H](C)CCCC(C)C)O2 (some centres unmarked) [Vitamin E acetate],"Efficacy (percentage difference in MDA generation compared to the untreated, UV-stimulated control sample)",[1]; 0.1% conc of active in formula,−36%
O=C(O)/C=C/c1ccc(O)cc1 [p-coumeric acid],"Efficacy (percentage difference in MDA generation compared to the untreated, UV-stimulated control sample)",[1]; [3],−48%
same,"Efficacy (percentage difference in MDA generation compared to the untreated, UV-stimulated control sample)",[1]; 0.1% conc of active in formula,−55%
O=C1O[C@H]([C@@H](O)CO)C([O-])=C1OP(=O)([O-])[O-].[Na+].[Na+].[Na+] [sodium ascorbyl phosphate],reduction of UVA-induced squalene oxidation compared to a placebo formulation,[2],30%
same,"Efficacy (percentage difference in MDA generation compared to the untreated, UV-stimulated control sample)",[1]; 1% conc of active in formula,−41%
same,reduction of UV-induced squalene oxidation as compared to the control sample,"[1]; 1%, in vitro model",41%
